Patent US9113629B2, “4-amino-6-(4-substituted-phenyl)-picolinates and 6-amino-2-(4-substituted-phenyl)-pyrimidine-4-carboxylates and their use as herbicides” (DOW AGROSCIENCES LLC, priority 2013, dated 2015)
Where two headings read alike, the source gives them in different places.

Columns and labels:
[1] = system: Key Broadleaf Weed and Crop Species; experiment: Post-emergent Test II herbicidal activity (Table 5); assay type: in vivo; details: post-emergence, 336 h, 14 days after application; for pest or weed control at 70 g/ha: application rate 70 g ai/ha; for pest or weed control at 140 g/ha: application rate 140 g ai/ha
Outline: (§1)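 Compounds, dissolved in 97:3 acetone/DMSO and diluted into an aqueous carrier containing crop oil concentrate and Triton X-155, are applied over the top of young plants at 187 L/ha. Injury is scored visually at 14 d, 0% meaning no effect and 100% complete kill.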

[2] = system: Key Grass and Sedge Weeds as well as Grass Crops; experiment: Post-emergent Test II herbicidal activity (Table 6); assay type: in vivo; details: post-emergence, 336 h; for pest or weed control at 70 g/ha: 70 g ai/ha; for pest or weed control at 140 g/ha: 140 g ai/ha
Outline: as §1

[3] = ABUTH: velvetleaf (Abutilon theophrasti), read-out: Visual Growth Reduction (%) 14 Days After Application, ABUTH
[4] = AMARE: redroot pigweed (Amaranthus retroflexus), read-out: Visual Growth Reduction (%) 14 Days After Application, AMARE
[5] = BRSNN: oilseed-rape, canola (Brassica napus), read-out: Visual Growth Reduction (%) 14 Days After Application, BRSNN
[6] = CHEAL: lambsquarters (Chenopodium album), read-out: Visual Growth Reduction (%) 14 Days After Application, CHEAL
[7] = EPHHL: wild poinsettia (Euphorbia heterophylla), read-out: Visual Growth Reduction (%) 14 Days After Application, EPHHL
[8] = HELAN: sunflower (Helianthus annuus), read-out: Visual Growth Reduction (%) 14 Days After Application, HELAN
[9] = VIOTR: wild pansy (Viola tricolor), read-out: Visual Growth Reduction (%) 14 Days After Application, VIOTR
[10] = CYPES: yellow nutsedge (Cyperus esculentus), read-out: Visual Growth Reduction (%) 14 Days After Application, CYPES
[11] = DIGSA: crabgrass (Digitaria sanguinalis), read-out: Visual Growth Reduction (%) 14 Days After Application, DIGSA
[12] = ECHCG: barnyardgrass (Echinochloa crus-galli), read-out: Visual Growth Reduction (%) 14 Days After Application, ECHCG
[13] = ORYSA: rice (Oryza sativa), crop, read-out: Visual Growth Reduction (%) 14 Days After Application, ORYSA
[14] = SETFA: giant foxtail (Setaria faberi), read-out: Visual Growth Reduction (%) 14 Days After Application, SETFA
[15] = SORVU: grain sorghum (Sorghum vulgare), read-out: Visual Growth Reduction (%) 14 Days After Application, SORVU
[16] = TRZSS (wheat, Triticum aestivum), crop, read-out: Visual Growth Reduction (%) 14 Days After Application, TRZSS
[17] = ZEAMX: maize, corn (Zea mays), crop, read-out: Visual Growth Reduction (%) 14 Days After Application, ZEAMX

Which results are given for `Nc1c(F)c(-c2ccc(Cl)c(F)c2)nc(C(=O)O)c1Cl` [Compound 217]?
pest or weed control at 70 g/ha [1, 3]: 95 to 100%; pest or weed control at 140 g/ha [1, 3]: 95 to 100%; pest or weed control at 70 g/ha [1, 4]: 95 to 100%; pest or weed control at 140 g/ha [1, 4]: 95 to 100%; pest or weed control at 70 g/ha [1, 5]: 85 to 94%; pest or weed control at 140 g/ha [1, 5]: 95 to 100%; pest or weed control at 70 g/ha [1, 6]: 95 to 100%; pest or weed control at 140 g/ha [1, 6]: 95 to 100%; pest or weed control at 70 g/ha [1, 7]: 95 to 100%; pest or weed control at 140 g/ha [1, 7]: 95 to 100%; pest or weed control at 70 g/ha [1, 8]: 95 to 100%; pest or weed control at 140 g/ha [1, 8]: 95 to 100%; pest or weed control at 70 g/ha [1, 9]: 95 to 100%; pest or weed control at 140 g/ha [1, 9]: 95 to 100%; pest or weed control at 70 g/ha [2, 10]: 85 to 94%; pest or weed control at 140 g/ha [2, 10]: 85 to 94%; pest or weed control at 70 g/ha [2, 11]: 85 to 94%; pest or weed control at 140 g/ha [2, 11]: 85 to 94%; pest or weed control at 70 g/ha [2, 12]: 95 to 100%; pest or weed control at 140 g/ha [2, 12]: 95 to 100%; pest or weed control at 70 g/ha [2, 13]: 60 to 74%; pest or weed control at 140 g/ha [2, 13]: 75 to 84%; pest or weed control at 70 g/ha [2, 14]: 95 to 100%; pest or weed control at 140 g/ha [2, 14]: 95 to 100%; pest or weed control at 70 g/ha [2, 15]: 85 to 94%; pest or weed control at 140 g/ha [2, 15]: 85 to 94%; pest or weed control at 70 g/ha [2, 16]: 75 to 84%; pest or weed control at 140 g/ha [2, 16]: 75 to 84%; pest or weed control at 70 g/ha [2, 17]: 85 to 94%; pest or weed control at 140 g/ha [2, 17]: 95 to 100%; melting point: 159 to 161 °C
